One block for each molecule: values may come before it.
What was measured:
spontaneous tumors = conditions: 10 mg by gavage; X-ray imaging about two hours after; mice showing spontaneous tumors; control images of same mice prior to treatment did not show foci
From the text: As described above, oxidative foci or tumors may be identified by X-ray radiographic imaging of animals following administration of an indigogenic compound of the present invention. The radio-opaque indigo-like product formed and deposited with residence time in FROS-containing tumor tissues may then be detected.
In this example, female C3H/HeN mice were obtained as multiparous retired breeders (i.e., after 3 to 4 litters) that were positive for a mammary tumor virus. See, e.g., Sellitti, D. F., Tseng, Y-C., and Latham, K. R., “Effect of 3,5,3′-Triiodo-L-thyronine on the Incidence and Growth Kinetics of Spontaneous Mammary Tumors in C3H/HeN Mice,” Cancer Research, 41: 5015-19 (1981), the entire contents and disclosure of which are incorporated herein by reference. Mice showing spontaneous tumors were given 10 mg of 5-Iodo-Indoxyl-3′,5′-Diiodo-4′-hydroxy ether substrate (product of Example 4) by gavage. These mice were then subjected to X-ray imaging of the tumors about two hours after being fed the iodo-indigogenic compound. […] When developed, the X-ray film appears dark in areas where more transmission occurs and light in areas where less transmission occurs.

[1] = system: sites of the wound or injury; conditions: mice with small injuries or wounds (cuts, scratches); data not shown
[2] = Spontaneous dehalogenation and ether cleavage in buffered aqueous solution exposed to sunlight; format: physicochemical; conditions: about 1 mM in carbonate buffer (pH 8.0), exposed to sunlight for about one hour; clear yellow/orange solution formed
From the text: In contrast to reductive deiodination, spontaneous dehalogenation (e.g., deiodination) of a halogentated phenol ring in the presence of an oxidizing agent(s) and/or free radical(s) with cleavage of a chemical linkage, such as an ether linkage, etc., between the phenol ring and a conjugated compound has not been described. According to the present invention, cleavage of the ether linkage between the aromatic rings of thyroid hormone may form visibly colored quinone and iodine-containing products in buffered aqueous solutions in vitro, and this ether cleavage reaction may be accelerated under basic pH conditions and with exposure to ionizing radiation or light. These conditions favor the increased formation of oxidizing agents and/or free radicals, which are believed to promote the reaction. […] A quinone and an iodotyrosine product are also formed by cleavage of the ether linkage during the reaction. According to embodiments of the present invention, a spontaneous reaction of dehalogenation and cleavage of a chemical bond is proposed for the targeted delivery and release of a drug compound at or to sites of inflammation or disease. This spontaneous reaction is further proposed as a basis for scavenging free radicals and/or oxidative agents (FROS) as well as for the creation of a detectable compound(s) that may be used for diagnostic purposes.

[3] = Cleavage of the C—C bond during the oxidative dehalogenation reaction; format: physicochemical
From the text: It has also been discovered that other types of bonds or linkages may also be cleaved by oxidative or free radical-mediated dehalogenation of the phenol ring. For example, as described herein, it has now been observed that a carbonyl linkage, a nitrogen linkage, a sulfinyl linkage and possibly a C—C bond on the phenol ring may also be cleaved by the oxidative dehalogenation reaction. These bonds are also considered stable, and their cleavage in connection with the dehalogenation reaction is surprising as well. One caveat with the C—C bond or linkage is that depending on the particular starting compound structure and the substituents or groups attached to the halogenated phenol ring via the C—C bond, the C—C bond or linkage may or may not be generally cleaved during or following the dehalogenation reaction (see below). […] However, other compounds do become cleaved. It is important to note that whether a C—C bond of a particular starting compound is “cleavable,” or becomes cleaved, may not be all-or-nothing (i.e., the C—C bond may be considered non-cleavable even though a small or minute amount of cleavage may occur, and vice versa). Thus, the amount or percentage of cleavage may be partial with the alternatively cleaved or non-cleaved product being possibly undetected or minute. […]

Compound: Oc1c(I)cc(Oc2c[nH]c3ccc(I)cc23)cc1I [Example 4, 5-Iodo-Indolyl-3′,5′-Diiodo-4′-hydroxyl-p-Phenol Ether]
radio-opaque tumor regions or foci by X-ray (formation and deposit of indigo-like product in oxidative tumor tissues) (spontaneous tumors): radio-opaque tumor regions or foci | X-ray detection at sites of wound or injury [1]: strong detection was observed

Compound: N[C@@H](Cc1cc(I)c(Oc2cc(I)c(O)c(I)c2)c(I)c1)C(=O)O [thyroxine]
cleavage of ether linkage with release of iodide [2]: the ether linkage is broken spontaneously

cleavage of C—C bond with the dehalogenation reaction [3]: generally not to be cleaved
Compound: N[C@@H](Cc1ccc(O)c(I)c1)C(=O)O [MIT, 3-iodo-4-hydroxy-L-phenylalanine]
